We go through one molecule from PMC3669377, “Purification, Cloning, Characterization and Essential Amino Acid Residues Analysis of a New ι-Carrageenase from Cellulophaga sp. QY3” (PLoS ONE, 2013).

Structures are written as SMILES.

In the assay the target is T1, CgiA_Ce (Cellulophaga sp. QY3, UniProt M1EU02).
T1 construct: gene cgiA; native secreted enzyme purified from culture supernatant; mature, putative signal peptide M1-S41 removed (precursor 492 residues); monomer
T1 sequence (M1EU02 42-492): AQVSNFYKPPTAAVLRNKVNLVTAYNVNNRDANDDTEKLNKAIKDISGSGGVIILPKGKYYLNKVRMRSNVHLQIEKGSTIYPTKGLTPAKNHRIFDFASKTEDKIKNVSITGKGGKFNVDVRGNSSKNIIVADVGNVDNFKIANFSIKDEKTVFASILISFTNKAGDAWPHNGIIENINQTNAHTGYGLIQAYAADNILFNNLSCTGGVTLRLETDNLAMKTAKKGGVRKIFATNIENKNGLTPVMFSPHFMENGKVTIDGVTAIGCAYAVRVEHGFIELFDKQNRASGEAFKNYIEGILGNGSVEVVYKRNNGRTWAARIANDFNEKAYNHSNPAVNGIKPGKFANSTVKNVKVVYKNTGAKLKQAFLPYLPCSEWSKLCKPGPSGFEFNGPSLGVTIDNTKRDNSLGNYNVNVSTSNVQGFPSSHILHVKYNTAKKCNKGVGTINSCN
Description: FACE analysis of hydrolysis products. The conditions noted are these: pH 7.0, 45°C; 10 mg/ml substrate; minimum substrate; products neo-iota-carrabiose and neo-iota-carratetraose. The format is biochemical.

For `O=S(=O)(O)O[C@@H]1[C@H](O[C@H]2O[C@@H]3CO[C@@H]([C@H]3O[C@@H]3O[C@H](CO)[C@H](OS(=O)(=O)O)[C@H](O[C@H]4O[C@@H]5CO[C@@H]([C@H]5O)[C@H]4OS(=O)(=O)O)[C@H]3O)[C@H]2OS(=O)(=O)O)[C@@H](O)[C@H](O[C@@H]2[C@@H]3OC[C@H]2O[C@H](O[C@H]2[C@@H](OS(=O)(=O)O)[C@@H](CO)OC(O)[C@@H]2O)[C@@H]3OS(=O)(=O)O)O[C@@H]1CO` (stereo partly shown) [DP6, neo-ι-carrahexaose], the “FACE analysis of hydrolysis products” value is “Neo-ι-carrahexaose was the shortest chain that can be recognized and cleaved by CgiA_Ce”.
